Test results: the NIST ThermoML archive (doi:10.1016/j.jct.2012.11.020)

Assay: wn = mass fraction of the nth substance listed
Conditions: 298.15 K, 100 kPa, Liquid, Alternating current cell with electrodes

C1CC[NH2+]C1.O=[N+]([O-])[O-] [pyrrolidinium nitrate] + CC1COC(=O)O1
Conditions | electrical conductivity [S/m]
w1 = 0.1266 | 0.874
w1 = 0.1348 | 0.927
w1 = 0.1441 | 0.989
w1 = 0.1543 | 1.06
w1 = 0.1646 | 1.12
w1 = 0.1788 | 1.24
w1 = 0.1948 | 1.32
w1 = 0.2149 | 1.45
w1 = 0.2396 | 1.62
w1 = 0.2529 | 1.7
w1 = 0.2692 | 1.94
w1 = 0.2862 | 2.05
w1 = 0.3073 | 2.2
w1 = 0.3274 | 2.32
w1 = 0.3479 | 2.46
w1 = 0.3768 | 2.63
w1 = 0.3915 | 2.71
w1 = 0.4212 | 2.86
w1 = 0.4476 | 3.05
w1 = 0.4916 | 3.21
w1 = 0.5453 | 3.46
w1 = 0.5834 | 3.62
w1 = 0.6211 | 3.74
w1 = 0.6897 | 3.92
w1 = 0.7407 | 4.12
w1 = 0.8065 | 4.28
w1 = 0.8913 | 4.47
w1 = 1 | 4.22
